# Measured values published in patent US20020015990A1, “LACTOBACILLUS BIFIDUS GROWTH PROMOTING COMPOSITION AND USE THEREOF” (priority 1996, published 2002).
# Assays:
# [1] = system: Bifidobacterium adolescentis BB-102; assay: Consumption speed-accelerating effect (increase in turbidity after 8 hours, test medium / glucose basic medium); type: cell-based; conditions: for Consumption speed-accelerating effect, Bifidobacterium adolescentis: Table 1, single oligosaccharide in place of glucose; for Consumption speed-accelerating effect, B. adolescentis: Table 2, raffinose + lactulose, total 2.0% in place of 2.0% glucose
# Experimental: (§1) Bifidobacterium bifidum BB-225, Bifidobacterium adolescentis BB-102, Bifidobacterium breve BB-308, Bifidobacterium longum BB-536. The basic culture medium and pre-cultivation solution were prepared as in above-mentioned Preliminary Test 1. The test culture medium was prepared using the following 7 types of oligosaccharides, which are widely used as Lactobacillus bifidus growth factor, in place of glucose: Raffinose (Nihon […] Seito Co., Ltd.), lactulose (Morinaga Milk Industry Co., Ltd.), galacto-oligosaccharide (Nisshin Seito Co., Ltd.), lactosucrose (Hayashibara Shoji Co., Ltd.), fructo-oligosaccharide (Meiji Seika Co., Ltd.), isomalto-oligosaccharide (Hayashibara Shoji Co., Ltd.), and xylo-oligosaccharide (Santori Co., Ltd.). Cultivation was performed as in above-mentioned Preliminary Test 1 and the sugar consumption speed was calculated by the following formula and comparative studies were performed, using the increment increase in turbidity of each medium up to 8 hours later as the index. Consumption speed-accelerating effect (fold)=(increase in turbidity after 8 hours in test medium)/(increase in turbidity after 8 hours in basic medium) The basic culture medium and pre-cultivation solution were prepared as for above-mentioned Preliminary Test 1. The test culture medium was prepared changing the total amount of each of the desired raffinose and oligosaccharide to 2.0% in place of the 2.0% glucose in the basic medium and the addition ratio to 13 steps. The oligosaccharides that were used were the same as in above-mentioned Preliminary Test 2, and cultivation, determination of turbidity and assessment of the sugar consumption speed-accelerating activity were performed by the same methods as in above-mentioned Preliminary Test 2.
# [2] = system: Bifidobacterium bifidum BB-225; assay: as above; type: cell-based; conditions: for Consumption speed-accelerating effect, Bifidobacterium bifidum: Table 1, single oligosaccharide in place of glucose; for Consumption speed-accelerating effect, B. bifidum: Table 2, raffinose + lactulose, total 2.0% in place of 2.0% glucose
# Experimental: as §1
# [3] = system: Bifidobacterium breve BB-308; assay: as above; type: cell-based; conditions: for Consumption speed-accelerating effect, Bifidobacterium breve: Table 1, single oligosaccharide in place of glucose; for Consumption speed-accelerating effect, B breve: Table 2, raffinose + lactulose, total 2.0% in place of 2.0% glucose
# Experimental: as §1
# [4] = system: Bifidobacterium longum BB-536; assay: as above; type: cell-based; conditions: for Consumption speed-accelerating effect, Bifidobacterium longum: Table 1, single oligosaccharide in place of glucose; for Consumption speed-accelerating effect, B longum: Table 2, raffinose + lactulose, total 2.0% in place of 2.0% glucose
# Experimental: as §1
# [5] = system: 4 species of Lactobacillus bifidus; assay: Mean consumption speed-accelerating activity of 4 species of test bacteria; type: cell-based, Bifidobacterium adolescentis, breve, bifidum, longum; conditions: 8 hours; for Mean consumption speed-accelerating activity of 4 species of test bacteria: Table 3, raffinose + other oligosaccharide; for Mean consumption speed-accelerating activity of 4 species of test bacteria / Mean consumption speed-accelerating activity of 4 species: total 2.0% in place of 2.0% glucose; for Mean consumption speed-accelerating activity of 4 species: Table 2, raffinose + lactulose
# Experimental: Bifidobacterium bifidum BB-225, Bifidobacterium adolescentis BB-102, Bifidobacterium breve BB-308, Bifidobacterium longum BB-536. Cultivation was performed as in above-mentioned Preliminary Test 1 and the sugar consumption speed was calculated by the following formula and comparative studies were performed, using the increment increase in turbidity of each medium up to 8 hours later as the index. Consumption speed-accelerating effect (fold)=(increase in turbidity after 8 hours in test medium)/(increase in turbidity after 8 hours in basic medium) The same four species of Lactobacillus bifidus as used in above-mentioned Preliminary Test 2 were employed. The basic culture medium and pre-cultivation solution were prepared as for above-mentioned Preliminary Test 1. The test culture medium was prepared changing the total amount of each of the desired raffinose and oligosaccharide to 2.0% in place of the 2.0% glucose in the basic medium and the addition ratio to 13 steps. The oligosaccharides that were used were the same as in above-mentioned Preliminary Test 2, and cultivation, determination of turbidity and assessment of the sugar consumption speed-accelerating activity were performed by the same methods as in above-mentioned Preliminary Test 2. The consumption speed-accelerating effect of each of the 4 strains of Lactobaccilus bifidus tested, as well as the average consumption speed-accelerating effect of the 4 species tested, in a culture medium that used a combination of raffinose and lactulose are shown in Table 2 and the average consumption speed-accelerating effect in each of the 4 species of bacteria tested with various test media other than medium using raffinose and lactulose are shown in Table 3.
# [6] = system: Bifidobacterium longum BB-536; assay: Preliminary Test 1: change over time in medium turbidity (growth curve) with different sugar sources; type: cell-based; conditions: sugar in place of glucose in basic medium; up to 24 hours of cultivation at 37° C.; turbidity 660 nm
# Experimental: This test was performed in order to investigate changes over time in medium turbidity and determine if measurement of turbidity after a certain cultivation time is valid for assessing the speed with which the Lactobacilluls bifidus consumes sugar:
# Bifidobacterium longum BB-536, which is a microorganism belonging to the genus Bifidobacterium, derived from humans that was separated and identified from the feces of healthy adults by conventional methods (Tomonari Mitsuoka, ed., “Research of Bifidus Bacteria,” pages 40˜60, Zaidanhojin Nihon Bifizusukin Senta (Japan Bifidus Bacteria Center), 1994) was used in this test. Furthermore, this strain is stored by the inventors and is available for any person as needed. […]
# First, 0.5 ml of each of the above-mentioned cultivation solutions of Lactobacillus bifidus were inoculated in every 2 of the above-mentioned test media and turbidity was immediately measured with a quartz cell at a wavelength of 660 nm and light path length of 10 mm using a spectrophotometer (Hitachi Seisakusho Co., Ltd.). […] Turbidity was measured under the same conditions as previously described at 2-hour intervals and the mean turbidity of the 2 test tubes was calculated as the determination.
# Moreover, basic medium containing glucose was simultaneously used as the control and turbidity was similarly determined. […]
SMILES,"Consumption speed-accelerating effect, Bifidobacterium adolescentis [1] [fold]","Consumption speed-accelerating effect, Bifidobacterium bifidum [2] [fold]","Consumption speed-accelerating effect, Bifidobacterium breve [3] [fold]","Consumption speed-accelerating effect, Bifidobacterium longum [4] [fold]",Mean consumption speed-accelerating activity of 4 species of test bacteria [5],sugar consumption speed compared with glucose medium (FIG. 1) [6],"Consumption speed-accelerating effect, B. adolescentis [1]","Consumption speed-accelerating effect, B. bifidum [2]","Consumption speed-accelerating effect, B breve [3]","Consumption speed-accelerating effect, B longum [4]","consumption speed-accelerating activity by Lactobacillus bifidus (in words) ([5]; 4 species, compared with glucose medium)",Mean consumption speed-accelerating activity of 4 species [5],availability for Bifidobacterium bifidus (in words) ([2]; single oligosaccharide in place of glucose)
"OC[C@H]1O[C@@H](O[C@H]2[C@H](O)[C@@H](O)[C@@H](O[C@]3(CO)O[C@H](CO)[C@@H](O)[C@@H]3O)O[C@@H]2CO)[C@H](O)[C@@H](O)[C@H]1O [Lacto-sucrose, lactosucrose]",0.83,0.03,0.87,0.78,(0.63) fold,–,–,–,–,–,–,–,–
OC[C@H]1O[C@@H](O[C@@H]2[C@@H](CO)OC(O)(CO)[C@H]2O)[C@H](O)[C@@H](O)[C@H]1O (mixture of isomers) [Lactulose],0.97,0.96,1.08,0.92,–,approximately the same sugar consumption speed as the medium that used glucose,(0.97) fold,(0.96) fold,(1.08) fold,(0.92) fold,relatively strong consumption speed-accelerating activity,(0.98) fold,–
OC[C@H]1O[C@H](OC[C@H]2O[C@H](O[C@]3(CO)O[C@H](CO)[C@@H](O)[C@@H]3O)[C@H](O)[C@@H](O)[C@@H]2O)[C@H](O)[C@@H](O)[C@H]1O [Raffinose],1.02,0.02,1.15,1.09,(0.82) fold,higher consumption speed than the medium that used glucose,(1.02) fold,(0.02) fold,(1.15) fold,(1.09) fold,–,(0.82) fold,did not show availability
